The results in this text go back to patent US20070053942A1, “Disinfectant and/or bactericidal aqueous compositions” (priority 2003, published 2007).

A short description of the series: solubility in water. Type of series: physicochemical.

Where a name gives a salt, the structure may show the parent alone.

As to `CCCCCCCCNC(=N)NC(=N)NCc1ccc(Cl)c(Cl)c1` [olanexidine hydrochloride, 1-(3,4-dichlorobenzyl)-5-octylbiguanide], where the note is “at 0° C.”, the “solubility (in water) of olanexidine hydrochloride alone” value came to 0.02% and the solubility in water is reported as 0.02 W/V %. Further, under “at 25° C., water, pH adjusted to 6”, the Solubility turned out to be 0.05 W/V %.
